ChEMBL document CHEMBL5385946, “Discovery of Dehydroabietylamine Derivatives as Antibacterial and Antifungal Agents” (J Nat Prod, 2024)
≈ marks a conversion by molar mass, not a printed value. Calls of active or inactive are those of the source. The calls are words filed in the database; no cut-off is given here.

Experiments:
Fusarium graminearum = assay: Antifungal activity against Gibberella zeae at 50 ug/ml; type: functional
Escherichia coli = assay: Antibacterial activity against Escherichia coli CMCC(B)44102 by agar dilution method; type: functional
Staphylococcus aureus = assay: Antibacterial activity against Staphylococcus aureus CMCC(B)26003 by agar dilution method; type: functional
[1] = target: DNA topoisomerase II (Homo sapiens) (UniProt P11388+Q02880); assay: Inhibition of DNA topoisomerase II (unknown origin); type: protein assay
Rhizoctonia solani [2] = assay: Antifungal activity against Rhizoctonia solani; type: functional, organism-based
Rhizoctonia solani [3] = assay: Antifungal activity against Rhizoctonia solani at 50 ug/ml; type: functional
Botrytis cinerea = assay: Antifungal activity against Botrytis cinerea at 50 ug/ml; type: functional
Alternaria solani = assay: Antifungal activity against Alternaria solani at 50 ug/ml; type: functional
Rhizoctonia solani [4] = assay: Antifungal activity against Rhizoctonia solani assessed as protective effect at 400 ug/ml; type: functional; settings: dose 400 µg/ml
Rhizoctonia solani [5] = assay: Antifungal activity against Rhizoctonia solani assessed as appearance of rough surface at 25 ug/ml by SEM analysis; type: functional, organism-based; settings: dose 25.0 µg/ml
Rhizoctonia solani [6] = assay: Antifungal activity against Rhizoctonia solani assessed as protective effect at 200 ug/ml; type: functional; settings: dose 200 µg/ml
Rhizoctonia solani [7] = assay: Antifungal activity against Rhizoctonia solani assessed as appearance of irregular intertwining at 25 ug/ml by SEM analysis; type: functional, organism-based; settings: dose 25.0 µg/ml
Rhizoctonia solani [8] = assay: Antifungal activity against Rhizoctonia solani assessed as appearance of disordered mycelium winding incubated for 36 hrs; type: functional, organism-based
Rhizoctonia solani [9] = assay: Antifungal activity against Rhizoctonia solani assessed as appearance of wrinkling on mycelium surface incubated for 36 hrs; type: functional, organism-based
Rhizoctonia solani [10] = assay: Antifungal activity against Rhizoctonia solani assessed as hyphal surface secretion at 25 ug/ml by SEM analysis; type: functional, organism-based; settings: dose 25.0 µg/ml
Rhizoctonia solani [11] = assay: Antifungal activity against Rhizoctonia solani assessed as appearance of shrunk hyphae at 25 ug/ml by SEM analysis; type: functional, organism-based; settings: dose 25.0 µg/ml
Rhizoctonia solani [12] = assay: Antifungal activity against Rhizoctonia solani assessed as appearance of twisted hyphae at 25 ug/ml by SEM analysis; type: functional, organism-based; settings: dose 25.0 µg/ml
Rhizoctonia solani [13] = assay: Antifungal activity against Rhizoctonia solani assessed as appearance of irregular mycelium bending incubated for 36 hrs; type: functional, organism-based
Rhizoctonia solani [14] = assay: Antifungal activity against Rhizoctonia solani assessed as mycelium shrinkage incubated for 36 hrs; type: functional, organism-based
Rhizoctonia solani [15] = assay: Antifungal activity against Rhizoctonia solani assessed as appearance of contracted surface at 25 ug/ml by SEM analysis; type: functional, organism-based; settings: dose 25.0 µg/ml

Structure (SMILES)	inhibition at 50 µg/mL (Fusarium graminearum) [%]	MIC (Escherichia coli) [µg/mL]	MIC (Staphylococcus aureus) [µg/mL]	inhibition at 50 µg/mL (Rhizoctonia solani [3]) [%]	inhibition at 50 µg/mL (Botrytis cinerea) [%]	inhibition at 50 µg/mL (Alternaria solani) [%]	other results
CC(C)c1ccc2c(c1)CC[C@H]1[C@@](CN)(Cc3ccc(Cl)cc3)CCC[C@]21C	25.9	0.125 (≈ 0.316 µM)	8 (≈ 20.2 µM)	80.6	47.3	20.2	INH [1]: 0.76 ng/mL; EC50 (Rhizoctonia solani [2]): 7.86 µg/mL (≈ 19.9 µM)
COc1ccc(C[C@@]2(CNC(=O)c3ccccn3)CCC[C@]3(C)c4ccc(C(C)C)cc4CC[C@@H]23)cc1	4.5	64 (≈ 129 µM)	> 128	48.6	22.2	4.9	–
CC(C)c1ccc2c(c1)CC[C@H]1[C@@](CNC(=O)c3ccccn3)(Cc3ccc(C(C)(C)C)cc3)CCC[C@]21C	22.1	8 (≈ 15.3 µM)	> 128	65.4	38.4	31.6	–
COc1ccccc1C[C@@]1(CN)CCC[C@]2(C)c3ccc(C(C)C)cc3CC[C@@H]12	24.8	32 (≈ 81.7 µM)	> 128	44.5	51.4	16.9	–
CC(C)c1ccc2c(c1)CC[C@H]1[C@@](CNC(=O)c3ccccn3)(Cc3ccc(C(F)(F)F)cc3)CCC[C@]21C	0	64 (≈ 120 µM)	64 (≈ 120 µM)	16.3	1.1	1.7	–
O=C(O)c1cn(C2CC2)c2cc(N3CCNCC3)c(F)cc2c1=O [CIPROFLOXACIN]	–	–	> 128	–	–	–	INH [1]: 1.11 ng/mL
CC(C)c1ccc2c(c1)CC[C@H]1[C@@](CNC(=O)c3ccccn3)(Cc3ccccc3)CCC[C@]21C	3.8	32 (≈ 68.6 µM)	> 128	1.9	12.4	2.5	–
OCC1=C[C@H](N[C@H]2C[C@H](CO)[C@@H](O[C@@H]3O[C@H](CO)[C@@H](O)[C@H](O)[C@H]3O)[C@H](O)[C@H]2O)[C@H](O)[C@@H](O)[C@@H]1O [VALIDAMYCIN]	–	–	–	–	–	–	Activity (Rhizoctonia solani [4]): 83.1%
CC(C)c1ccc2c(c1)CC[C@H]1[C@@](CNC(=O)c3ccccn3)(Cc3cccc(C#N)c3)CCC[C@]21C	4.5	32 (≈ 65.1 µM)	> 128	5.8	6.3	3	–
CC(C)c1ccc2c(c1)CC[C@H]1[C@@](CNC(=O)c3ccccn3)(Cc3ccc(C#N)cc3)CCC[C@]21C	0	64 (≈ 130 µM)	> 128	28.5	30.6	5.5	–
CC(C)c1ccc2c(c1)CC[C@H]1[C@@](CNC(=O)c3ccccn3)(Cc3ccc(Cl)cc3)CCC[C@]21C	45.7	32 (≈ 63.9 µM)	8 (≈ 16 µM)	55.3	51.3	35	–
COc1ccccc1C[C@@]1(CNC(=O)c2ccccn2)CCC[C@]2(C)c3ccc(C(C)C)cc3CC[C@@H]12	0	32 (≈ 64.4 µM)	> 128	46.2	20.6	3	–
CC(C)c1ccc2c(c1)CC[C@H]1[C@@](CNC(=O)c3ccccn3)(Cc3ccc(F)cc3)CCC[C@]21C	0	4 (≈ 8.25 µM)	32 (≈ 66 µM)	1.2	0	1.7	–
Cc1ccc(C[C@@]2(CNC(=O)c3ccccn3)CCC[C@]3(C)c4ccc(C(C)C)cc4CC[C@@H]23)cc1C	0	64 (≈ 129 µM)	> 128	7.4	15.2	4.1	–
CC(C)c1ccc2c(c1)CC[C@H]1[C@@](CNC(=O)c3ccccn3)(Cc3ccccc3C#N)CCC[C@]21C	0	64 (≈ 130 µM)	> 128	29.3	23.2	0	–
CC(C)c1ccc2c(c1)CC[C@H]1[C@@](CNC(=O)c3ccccn3)(Cc3cccc(C(F)(F)F)c3)CCC[C@]21C	0	64 (≈ 120 µM)	> 128	8.2	0	1	–
CC(C)c1ccc2c(c1)CC[C@H]1[C@@](CN)(Cc3ccc(C(F)(F)F)cc3)CCC[C@]21C	25.5	16 (≈ 37.2 µM)	> 128	38.6	36.2	11.6	–
O=C(Nc1ccccc1-c1ccc(Cl)cc1)c1cccnc1Cl [BOSCALID]	32	–	–	80.2	90.1	49.5	EC50 (Rhizoctonia solani [2]): 1.57 µg/mL (≈ 4.57 µM)
CC(C)c1ccc2c(c1)CC[C@H]1[C@@](CNC(=O)c3ccccn3)(Cc3ccc(Br)cc3)CCC[C@]21C	0	4 (≈ 7.33 µM)	32 (≈ 58.7 µM)	25.2	20.1	1.1	–
CC(C)c1ccc2c(c1)CC[C@H]1[C@@](CNC(=O)c3ccccn3)(Cc3ccc(N)cc3)CCC[C@]21C	3.5	32 (≈ 66.4 µM)	32 (≈ 66.4 µM)	28.5	5.6	4	–
CN[C@H](CC(C)C)C(=O)N[C@H]1C(=O)N[C@@H](CC(N)=O)C(=O)N[C@H]2C(=O)N[C@H]3C(=O)N[C@H](C(=O)N[C@H](C(=O)O)c4cc(O)cc(O)c4-c4cc3ccc4O)[C@H](O)c3ccc(c(Cl)c3)Oc3cc2cc(c3O[C@@H]2O[C@H](CO)[C@@H](O)[C@H](O)[C@H]2O[C@H]2C[C@](C)(N)[C@H](O)[C@H](C)O2)Oc2ccc(cc2Cl)[C@H]1O [VANCOMYCIN]	–	128 (≈ 88.3 µM)	–	–	–	–	–
CCOC(=O)c1ccc(C[C@@]2(CNC(=O)c3ccccn3)CCC[C@]3(C)c4ccc(C(C)C)cc4CC[C@@H]23)cc1	14.1	32 (≈ 59.4 µM)	> 128	0	0	1.2	–
COc1ccc(C[C@@]2(CN)CCC[C@]3(C)c4ccc(C(C)C)cc4CC[C@@H]23)cc1	34.8	32 (≈ 81.7 µM)	> 128	95.6	85.2	22.1	Activity (Rhizoctonia solani [5]): Active; Activity (Rhizoctonia solani [4]): 76.9%; Activity (Rhizoctonia solani [6]): 27.7%; Activity (Rhizoctonia solani [7]): Active; Activity (Rhizoctonia solani [8]): Active; Activity (Rhizoctonia solani [9]): Active; Activity (Rhizoctonia solani [10]): Active; Activity (Rhizoctonia solani [11]): Active; Activity (Rhizoctonia solani [12]): Active; Activity (Rhizoctonia solani [13]): Active; EC50 (Rhizoctonia solani [2]): 5.21 µg/mL (≈ 13.3 µM); Activity (Rhizoctonia solani [14]): Active; Activity (Rhizoctonia solani [15]): Active
CC(C)c1ccc2c(c1)CC[C@H]1[C@@](CNC(=O)c3ccccn3)(Cc3ccc(OC(F)(F)F)cc3)CCC[C@]21C	1.6	64 (≈ 116 µM)	> 128	26.1	0.9	0	–
COc1cccc(C[C@@]2(CNC(=O)c3ccccn3)CCC[C@]3(C)c4ccc(C(C)C)cc4CC[C@@H]23)c1	0	8 (≈ 16.1 µM)	16 (≈ 32.2 µM)	5.2	3.7	0	–
CC(C)c1ccc2c(c1)CC[C@H]1[C@@](CN)(Cc3ccc(C(C)(C)C)cc3)CCC[C@]21C	3.6	16 (≈ 38.3 µM)	> 128	65	32.4	7.9	–
